≈ marks a conversion by molar mass, not a printed value.
Test system: Leishmania major
Assay: Antileishmanial activity against promastigote form of Leishmania major after 72 hr by Neubauer counting analysis
Assay type: functional, organism-based

Row | SMILES | IC50
1 | O=[N+]([O-])c1ccc2[nH]c(-c3ccccc3)nc2c1 | 0.8 µg/mL (≈ 3.34 µM)
2 | O=[N+]([O-])c1ccc2[nH]c(-c3ccc(Cl)cc3)nc2c1 | 0.64 µg/mL (≈ 2.34 µM)
3 | Cc1ccc(-c2nc3cc([N+](=O)[O-])ccc3[nH]2)cc1 | 0.88 µg/mL (≈ 3.47 µM)
4 | O=[N+]([O-])c1ccc2[nH]c(-c3ccccc3[N+](=O)[O-])nc2c1 | 0.73 µg/mL (≈ 2.57 µM)
5 | O=[N+]([O-])c1ccc(-c2nc3cc([N+](=O)[O-])ccc3[nH]2)cc1 | 0.75 µg/mL (≈ 2.64 µM)
6 | c1ccc(-c2nc3ccccc3[nH]2)cc1 | 0.68 µg/mL (≈ 3.5 µM)
7 | COc1ccc(-c2nc3cc([N+](=O)[O-])ccc3[nH]2)cc1 | 0.85 µg/mL (≈ 3.16 µM)
8 | O=[N+]([O-])c1cccc(-c2nc3cc([N+](=O)[O-])ccc3[nH]2)c1 | 0.79 µg/mL (≈ 2.78 µM)
9 | O=[N+]([O-])c1ccc2[nH]c(-c3cccnc3)nc2c1 | 0.79 µg/mL (≈ 3.29 µM)
10 | Fc1ccc(-c2nc3ccccc3[nH]2)cc1 | 0.79 µg/mL (≈ 3.72 µM)
11 | O=[N+]([O-])c1ccc2nc(-c3ccccc3Cl)[nH]c2c1 | 0.91 µg/mL (≈ 3.33 µM)
12 | c1csc(-c2nc3ccccc3[nH]2)c1 | 0.62 µg/mL (≈ 3.1 µM)
13 | O=[N+]([O-])c1ccccc1-c1nc2ccccc2[nH]1 | 0.69 µg/mL (≈ 2.88 µM)
14 | Cc1ccc(-c2nc3ccccc3[nH]2)cc1 | 0.79 µg/mL (≈ 3.79 µM)
15 | Cc1ccc(-c2nc3cc([N+](=O)[O-])ccc3[nH]2)o1 | 0.64 µg/mL (≈ 2.63 µM)
16 | O=[N+]([O-])c1ccc2[nH]c(-c3ccc(F)cc3)nc2c1 | 0.77 µg/mL (≈ 2.99 µM)
17 | CCCCOc1ccc(-c2nc3cc([N+](=O)[O-])ccc3[nH]2)cc1 | 0.76 µg/mL (≈ 2.44 µM)
18 | CC(C)c1ccc(-c2nc3cc([N+](=O)[O-])ccc3[nH]2)cc1 | 0.8 µg/mL (≈ 2.84 µM)
19 | O=[N+]([O-])c1ccc2[nH]c(-c3c[nH]c4ccccc34)nc2c1 | 0.62 µg/mL (≈ 2.23 µM)

Row | SMILES | IC50
20 | O=[N+]([O-])c1ccc2[nH]c(-c3ccc[nH]3)nc2c1 | 0.91 µg/mL (≈ 3.99 µM)
21 | O=[N+]([O-])c1ccc2[nH]c(-c3cccs3)nc2c1 | 0.82 µg/mL (≈ 3.34 µM)
22 | COc1cccc(-c2nc3ccccc3[nH]2)c1 | 0.77 µg/mL (≈ 3.43 µM)
23 | CC(C)c1ccc(-c2nc3ccccc3[nH]2)cc1 | 0.64 µg/mL (≈ 2.71 µM)
24 | c1ccc2[nH]c(-c3c[nH]c4ccccc34)nc2c1 | 0.87 µg/mL (≈ 3.73 µM)
25 | c1c[nH]c(-c2nc3ccccc3[nH]2)c1 | 0.63 µg/mL (≈ 3.44 µM)
26 | Cc1ccc(-c2nc3ccccc3[nH]2)o1 | 0.84 µg/mL (≈ 4.24 µM)
27 | COc1cccc(-c2nc3cc([N+](=O)[O-])ccc3[nH]2)c1 | 0.82 µg/mL (≈ 3.05 µM)
28 | Oc1ccc(-c2nc3ccccc3[nH]2)cc1 | 0.92 µg/mL (≈ 4.38 µM)
29 | COc1ccc(-c2nc3ccccc3[nH]2)cc1 | 0.81 µg/mL (≈ 3.61 µM)
30 | c1ccc2[nH]c(-c3ccncc3)nc2c1 | 0.88 µg/mL (≈ 4.51 µM)
31 | O=[N+]([O-])c1ccc2[nH]c(-c3ccccn3)nc2c1 | 0.73 µg/mL (≈ 3.04 µM)
32 | Clc1ccccc1-c1nc2ccccc2[nH]1 | 0.78 µg/mL (≈ 3.41 µM)
33 | Clc1ccc(-c2nc3ccccc3[nH]2)cc1 | 0.72 µg/mL (≈ 3.15 µM)
34 | O=[N+]([O-])c1ccc(-c2nc3ccccc3[nH]2)cc1 | 0.71 µg/mL (≈ 2.97 µM)
35 | O=[N+]([O-])c1cccc(-c2nc3ccccc3[nH]2)c1 | 0.82 µg/mL (≈ 3.43 µM)
36 | CCCCOc1ccc(-c2nc3ccccc3[nH]2)cc1 | 0.65 µg/mL (≈ 2.44 µM)
37 | c1cncc(-c2nc3ccccc3[nH]2)c1 | 0.64 µg/mL (≈ 3.28 µM)

Source: ChEMBL document CHEMBL3046371, “Benzimidazole derivatives: synthesis, leishmanicidal effectiveness, and molecular docking studies” (Med Chem Res, 2013)
